Common to all, as to type: in vivo
Assay [1] deals with Echinochloa crusgalli (L.) Beauv. (ECHCG). Put plainly: Postemergence foliar-applied, direct seeded rice, greenhouse: visual weed control. The settings on record: 21 DAA. The method, then:
(§1) Seeds or nutlets of the desired test plant species were planted in a soil matrix prepared by mixing a loam or sandy loam soil (e.g., 28.6 percent silt, 18.8 percent clay, and 52.6 percent sand, with a pH of about 5.8 and an organic matter content of about 1.8 percent) and calcareous grit in an 80 to 20 ratio. The soil matrix was contained in plastic pots with a volume of 1 quart and a surface area of 83.6 cm^2. […] The plants were grown for 8-22 days in a greenhouse with an approximate 14 h photoperiod which was maintained at about 29° C. during the day and 26° C. during the night. Nutrients (Peters Excel® 15-5-15 5-Ca 2-Mg and iron chelate) were applied in the irrigation solution as needed and water was added on a regular basis. Supplemental lighting was provided with overhead metal halide 1000-Watt lamps as necessary. The plants were employed for testing when they reached the first through fourth true leaf stage.
(§2) Forms of compound A were applied on an acid equivalent basis.
(§3) For treatments comprised of formulated compounds, measured amounts of compounds were placed individually in 25 mL glass vials and diluted in a volume of 1.25% (v/v) Agri-Dex® crop oil concentrated to obtain 12× stock solutions. […] Application solutions were prepared by adding an appropriate amount of each stock solution (e.g., 1 mL) and diluted to the appropriate final concentrations with the addition of 10 mL of an aqueous mixture of 1.25% (v/v) crop oil concentrate so that the final spray solutions contained 1.25+/−0.05% (v/v) crop oil concentrate.
(§4) As required, additional water and/or 97:3 v/v acetone/DMSO was added to individual application solutions so that the final acetone and DMSO concentrations of the application solutions being compared were 8.1% and 0.25%, respectively.
(§5) All stock solutions and applications solutions were visually inspected for compound compatibility prior to application. Spray solutions were applied to the plant material with an overhead Mandel track sprayer equipped with a 8002E nozzles calibrated to deliver 187 L/ha over an application area of 0.503 m^2 at a spray height of 18 to 20 inches (46 to 50 cm) above average plant canopy height. Control plants were sprayed in the same manner with the solvent blank.
(§6) The treated plants and control plants were placed in a greenhouse as described above and watered by sub-irrigation to prevent wash-off of the test compounds. After approximately 3 weeks, the condition of the test plants as compared with that of the untreated plants was determined visually and scored on a scale of 0 to 100 percent where 0 corresponds to no injury or growth inhibition and 100 corresponds to complete kill.
(§7) Colby's equation was used to determine the herbicidal effects expected from the mixtures (Colby, S. R. 1967. Calculation of the synergistic and antagonistic response of herbicide combinations. Weeds 15:20-22.).
(§8) The following equation was used to calculate the expected activity of mixtures containing two active ingredients, A and B: Expected=A+B−(A×B/100)

Assay [2] concerns Ipomoea hederacea Jacq. (IPOHE). The description is as above. The settings on record: post-emergence, read-out: Visual Weed Control (%) Obs. As for the experimental part:
as §1, §2, §3, §4, §5, §6, §7, §8

In assay [3] the test system is Leptochloa chinensis (L.) Nees (LEFCH). Put plainly: In-water applied, transplanted paddy rice, greenhouse: visual weed control. The settings on record: 21 DAA. As for the experimental part: Weed seeds or nutlets of the desired test plant species were planted in puddled soil (mud) prepared by mixing a shredded, non-sterilized mineral soil (50.5 percent silt, 25.5 percent clay, and 24 percent sand, with a pH of about 7.6 and an organic matter content of about 2.9 percent) and water at a 1:1 volumetric ratio. The prepared mud was dispensed in 365 mL aliquots into 16-ounce (oz.) non-perforated plastic pots with a surface area of 86.59 square centimeters (cm^2) leaving a headspace of 3 centimeters (cm) in each pot. Mud was allowed to dry overnight prior to planting or transplanting. Rice seeds were planted in Sun Gro MetroMix® 306 planting mixture, which typically has a pH of 6.0 to 6.8 and an organic matter content of about 30 percent, in plastic plug trays. Seedlings at the second or third leaf stage of growth were transplanted into 860 mL of mud contained in 32-oz. non-perforated plastic pots with a surface area of 86.59 cm^2 4 days prior to herbicide application. The paddy was created by filling the headspace of the pots with 2.5 to 3 cm of water. When required to ensure good germination and healthy plants, a fungicide treatment and/or other chemical or physical treatment was applied. The plants were grown for 4-22 days in a greenhouse with an approximate 14 h photoperiod which was maintained at about 29° C. during the day and 26° C. during the night. Nutrients were added as Osmocote® (19:6:12, N:P:K+minor nutrients) at 2 g per 16.-oz. pot and 4 g per 32-oz. pot. Water was added on a regular basis to maintain the paddy flood, and supplemental lighting was provided with overhead metal halide 1000-Watt lamps as necessary. The plants were employed for testing when they reached the first through fourth true leaf stage.
Treatments consisted of the acid or esters of 4-amino-3-chloro-5-fluoro-6-(4-chloro-2-fluoro-3-methoxy-phenyl)pyridine-2-carboxylic acid (compound A) each formulated as an SC and various herbicidal components alone and in combination. Forms of compound A were applied on an acid equivalent basis.
Treatment requirements for each compound or herbicidal component were calculated based upon the rates being tested, the concentration of active ingredient or acid equivalent in the formulation, an application volume of 2 mL per component per pot, and an application area of 86.59 cm^2 per pot.
For formulated compounds, a measured amount was placed in an individual 100 or 200 mL glass vial and was dissolved in a volume of 1.25% (v/v) Agri-Dex® crop oil concentrate to obtain application solutions.
For technical grade compounds, a weighed amount was placed in an individual 100 to 200 mL glass vial and was dissolved in a volume of acetone to obtain concentrated stock solutions. […] The concentrated stock solutions obtained were diluted with an equivalent volume of an aqueous mixture containing 2.5% (v/v) crop oil concentrate so that the final application solutions contained 1.25% (v/v) crop oil concentrate.
Applications were made by injecting, with a pipetter, appropriate amounts of the application solutions into the aqueous layer of the paddy. Control plants were treated in the same manner with the solvent blank. Applications were made so that all treated plant material received the same concentrations of acetone and crop oil concentrate.
The treated plants and control plants were placed in a greenhouse as described above and water was added as needed to maintain a paddy flood. After approximately 3 weeks the condition of the test plants as compared with that of the untreated plants was determined visually and scored on a scale of 0 to 100 percent where 0 corresponds to no injury or growth inhibition and 100 corresponds to complete kill.
(§9) Colby's equation was used to determine the herbicidal effects expected from the mixtures (Colby, S. R. 1967. Calculation of the synergistic and antagonistic response of herbicide combinations. Weeds 15:20-22.). […]

In assay [4] the test system is Ipomoea hederacea (L.) Jacq. (IPOHE). Description: Pre-emergence soil-applied, greenhouse: visual weed control. The settings on record: Propyzamide 1120 g ai/ha alone; soil-applied pre-emergence; 33 DAA.
Text: (§10) Seeds or nutlets of the desired test plant species were planted in a soil matrix prepared by mixing a loam soil (e.g., 32 percent silt, 23 percent clay, and 45 percent sand, with a pH of about 6.5 and an organic matter content of about 1.9 percent) and calcareous grit in an 80 to 20 ratio. The soil matrix was contained in plastic pots with a volume of 1 quart and a surface area of 83.6 square centimeters (cm^2).
as §2
(§11) For treatments comprised of formulated compounds, measured amounts of compounds were placed individually in 25 mL glass vials and diluted in a volume of 1.25% (v/v) Agri-Dex® crop oil concentrate (COC) to obtain 12× stock solutions. […] Application solutions were prepared by adding an appropriate amount of each stock solution (e.g., 1 mL) and diluted to the appropriate final concentrations with the addition of 10 mL of an aqueous mixture of 1.25% (v/v) COC so that the final spray solutions contained 1.25% (v/v) COC.
(§12) For treatments comprised of formulated and technical compounds, weighed amounts of the technical materials were placed individually in 25 mL glass vials and dissolved in a volume of 97:3 (v/v) acetone/DMSO to obtain 12× stock solutions, and measured amounts of the formulated compounds were placed individually in 25 mL glass vials and diluted in a volume of 1.5% (v/v) COC or water to obtain 12× stock solutions. […] Application solutions were prepared by adding an appropriate amount of each stock solution (e.g., 1 mL) and diluted to the appropriate final concentrations with the addition of an appropriate amount of an aqueous mixture of 1.5% (v/v) COC so that the final spray solutions contained 1.25% (v/v) COC. As required, additional water and/or 97:3 (v/v) acetone/DMSO was added to individual application solutions so that the final acetone and DMSO concentrations of the application solutions being compared were 8.1% and 0.25%, respectively.
(§13) All stock solutions and applications solutions were visually inspected for compound compatibility prior to application. Spray solutions were applied to the soil with an overhead Mandel track sprayer equipped with a 8002E nozzles calibrated to deliver 187 L/ha over an application area of 0.503 m^2 at a spray height of 18 inches (46 cm) above average pot height. Control pots were sprayed in the same manner with the solvent blank.
The treated and control pots were placed in a greenhouse and top watered as needed. […] The pots were maintained in a greenhouse with an approximate 14 hr photoperiod which was maintained at about 29° C. during the day and 26° C. during the night. Nutrients (Peters® Excel 15-5-15 5-Ca 2-Mg) were applied in the irrigation solution as needed and water was added on a regular basis. Supplemental lighting was provided with overhead metal halide 1000-Watt lamps as necessary. After approximately 4 weeks, the condition of the test plants as compared with that of the untreated plants was determined visually and scored on a scale of 0 to 100 percent where 0 corresponds to no injury or growth inhibition and 100 corresponds to complete kill.
as §7, §8

Assay [5] relates to Sesbania exaltata (Raf.) Cory/Rydb. Ex Hill (SEBEX). The description is as above.
Text: as §10
(§14) Treatments consisted of the benzyl ester of 4-amino-3-chloro-5-fluoro-6-(4-chloro-2-fluoro-3-methoxy-phenyl)pyridine-2-carboxylic acid (compound A) formulated as an SC (suspension concentrate) and various herbicidal components alone and in combination. Forms of compound A were applied on an acid equivalent basis.
(§15) Treatment requirements were calculated based upon the rates being tested, the concentration of active ingredient or acid equivalent in the formulation, and a 12 mL application volume at a rate of 187 L/ha.
as §11, §12, §13
(§16) The treated and control pots were placed in a greenhouse and top watered as needed. When required to ensure good germination and healthy plants, a fungicide treatment and/or other chemical or physical treatment was applied. The pots were maintained in a greenhouse with an approximate 14 hr photoperiod which was maintained at about 29° C. during the day and 26° C. during the night. Nutrients (Peters® Excel 15-5-15 5-Ca 2-Mg) were applied in the irrigation solution as needed and water was added on a regular basis. Supplemental lighting was provided with overhead metal halide 1000-Watt lamps as necessary. After approximately 4 weeks, the condition of the test plants as compared with that of the untreated plants was determined visually and scored on a scale of 0 to 100 percent where 0 corresponds to no injury or growth inhibition and 100 corresponds to complete kill.
as §9

In assay [6] the test system is Echinochloa colonum (L.) Link (ECHCO). The assay is described as above.
Text: as §10, §14, §15, §11, §12, §13, §16, §9

The subject of assay [7] is Brachiaria platyphylla (Groseb.) Nash or Urochloa platyphylla (Nash) R.D. Webster (BRAPP). Described as above.
Text: as §10, §14, §15, §11, §12, §13, §16, §9

The test system of assay [8] is Echinochloa crus-galli (L.) P. Beauv. (ECHCG). Described as above.
Text: as §10, §14, §15, §11, §12, §13, §16, §9

In assay [9] the test system is Setaria faberi Herrm. (SETFA). The description is as above.
Text: as §10, §14, §15, §11, §12, §13, §16, §9

The test system of assay [10] is Xanthium strumarium L. (XANST). The assay is described as above. The settings on record: 27 DAA.
Text: as §10, §14, §15, §11, §12, §13, §16, §9

Three compounds from patent US8846570B2, “Herbicidal compositions comprising 4-amino-3-chloro-5-fluoro-6-(4-chloro-2-fluoro-3-methoxyphenyl)pyridine-2-carboxylic acid or a derivative thereof and microtubule inhibiting herbicides” (Dow AgroSciences LLC, priority 2012, dated 2014) can be followed below.

Read-outs that look alike come from different tables or passages of the source.

As to `CCCCOC(=O)c1nc(-c2ccc(Cl)c(OC)c2F)c(F)c(N)c1Cl` [Compound A n-Butyl Ester], the “Visual Weed Control (%) Obs” value in [1] (17.5 g ae/ha) came out at 45%; in assay [1] (35 g ae/ha), 70%; in [3] (35 g ae/ha), 8%; in assay [3] (70 g ae/ha) it was 38%. Also, in assay [2] (504 h), the pest or weed control at 17.5 g/ha came to 40%.
On to `C#CC(C)(C)NC(=O)c1cc(Cl)cc(Cl)c1` [Propyzamide], for which the “Visual Weed Control (%) - 33 DAA IPOHE Obs” value in [4] amounted to 35%. Besides, the pest or weed control at 70 g/ha in [2] (528 h, 22 DAA, 70 g ai/ha) came to 0%. The pest or weed control at 140 g/ha in assay [2] (528 h, 22 DAA, 140 g ai/ha) turned out to be 0%. The pest or weed control at 280 g/ha in [2] (528 h, 22 DAA, 280 g ai/ha) came to 0%. In addition, the “Visual Weed Control (%) - 33 DAA SEBEX Obs” value in assay [5] (Propyzamide 280 g ai/ha alone) came to 20%; in assay [5] (Propyzamide 560 g ai/ha alone), 13%; in assay [5] (Propyzamide 1120 g ai/ha alone), 37%. The “Visual Weed Control (%) - 33 DAA ECHCO Obs” value in assay [6] (Propyzamide 280 g ai/ha alone) was 0%; in assay [6] (Propyzamide 560 g ai/ha alone), 23%; in [6] (Propyzamide 1120 g ai/ha alone), 80%. Besides, the results for the “Visual Weed Control (%) - 33 DAA BRAPP Obs” value in [7] (Propyzamide 280 g ai/ha alone) and in assay [7] (Propyzamide 560 g ai/ha alone) were 20% and 37%, respectively. For the same compound, the results for the “Visual Weed Control (%) - 33 DAA ECHCG Obs” value in assay [8] (Propyzamide 560 g ai/ha alone) and in assay [8] (Propyzamide 1120 g ai/ha alone) were 35% and 53%, respectively. The figures for the “Visual Weed Control (%) - 33 DAA SETFA Obs” value in assay [9] (Propyzamide 280 g ai/ha alone), in assay [9] (Propyzamide 560 g ai/ha alone) and in [9] (Propyzamide 1120 g ai/ha alone) were 0%, 68% and 93%, respectively.
With `COC(=O)c1c(C(F)F)nc(C(F)(F)F)c(C2=NCCS2)c1CC(C)C` [Thiazopyr, methyl 2-(difluoromethyl)-5-(4,5-dihydro-2-thiazolyl)-4-(2-methylpropyl)-6-(trifluoromethyl)-3-pyridinecarboxylate], the pest or weed control at 280 g/ha in assay [2] (480 h) amounted to 40%. The “Visual Weed Control (%) Obs” value in assay [10] (280 g ai/ha) stood at 15%; in assay [10] (560 g ai/ha), 10%.
